# Experimental data from patent US10131635B2, “Compositions and methods of using the compositions for plaque softening” (ALUMEND, LLC, priority 2013, dated 2018).
# Experiments:
# [1] = system: calcified plaque in postmortem diseased femoral arteries; experiment: IVUS analysis of human cadaveric arterial samples (echogenicity)
# Text: The following equipment was used in this Example: IVUS, Boston Scientific iLab 120 CARTR, UPN Product number: H749iLab120CARTRO, manufactured April 2011, Serial number 7347. The software is iReview version 1.0. The catheter is Boston Scientific Atlantis SR Pro 40 MHz Coronary Imaging Catheter, catalog number 38942, 3.6 F×135 cm.
# IVUS images have identified different types of plaque, e.g., soft, mixed, hard, and calcified. M. Sahara, et al., “Soft Plaque Detected on Intravascular Ultrasound Is the Strongest Predictor of In-Stent Restenosis: an Intravascular Ultrasound Study,” European Heart Journal, 25: 2026-2033 (2004), the disclosure of which is hereby incorporated by reference. For example, calcified plaque has been identified by two characteristics, i.e., a high echogenicity resulting in an intense reflection (bright white) and the presence of an acoustic shadow behind the plaque because the ultrasound cannot penetrate the calcified plaque.
# Postmortem diseased femoral arteries (both left and right) were received approximately 16 hours after the time of death. The samples were inspected to assess the level of disease. When palpated both the right and left arteries were extremely hard and rigid throughout the entire length of both arteries. Occlusion was visually judged as ranging from 20-60%. The artery was placed in PBS and IVUS pullback (0.5 mm/s) was completed three times (PRE 1, PRE 2, PRE 3). […] The artery was thoroughly rinsed with PBS to remove any excess plaque-softening compound. The artery was then placed into PBS and an IVUS pullback was conducted three times (SOAK 1, SOAK 2, SOAK 3). A balloon angioplasty catheter was placed into the artery and inflated to the reference vessel diameter (RVD) without any overstrech. A radially emitting light fiber was inserted into the catheter and centered in the angioplasty balloon. The composition was activated by exposure to blue light (447 nm) at an intensity of 1800 mW for 60 seconds. The balloon catheter was removed and an IVUS pullback was completed three times (POST 1, POST 2, POST 3).
# Each frame of each pullback (PRE 1, PRE 2, PRE 3, SOAK 1, SOAK 2, SOAK 3, POST 1, POST 2, POST 3) was analyzed and calcified plaque was identified including the acoustic shadow behind each area of plaque. FIGS. 15a and 15b are the IVUS images from frame 921 of PRE 1 and illustrate the existence of plaque. For each frame, the intensity of each gray pixel (based upon 255 shades of gray, “AVI” format and 521×521 pixels) within the arterial wall was determined. FIG. 17 is a histogram illustrating the gray scale of frame 921, PRE 1, wherein the y-axis is the pixel count and the x-axis is the pixel intensity. So, for example, there were a lot of pixels having a pixel intensity of 16 and very few pixels having a pixel intensity of 168. It is known that the relative amount of hypo-echogenic and hyper-echogenic reflections can be used to measure the change in calcified plaque. See S. Brugaletta, et al., “Serial In Vivo Intravascular Ultrasound-Based Echogenicity Changes of Everolimus-eluting Bioresorbable Vascular Scaffold During the First 12 Months After Implantation,” JACC: Cardiovascular Interventions, 4 (12):1281-1289 (2011), the disclosure of which is hereby incorporated by reference. For example, it is known that pixels with a gray scale intensity of 92 or lower were judged to be hypo-echogenic and those with a gray scale intensity of 93 or higher were judged to be hyper-echogenic. To be clear, in the instant Example, the mean gray value of the adventitia was used to classify tissue components as either hypo- or hyper-echogenic. One of ordinary skill in the art could easily determine the gray scale threshold for any data set in order to classify tissue components as either hypo- or hyper-echogenic.
# The pixel intensity of the entire IVUS pullback data was analyzed as a single data set. […]
# [2] = Linker solution hydrolysis (release of drug mimic, HPLC, first order rate constant); type: physicochemical; settings: 37° C.
# Procedure: The hydrolysis rate of a linker was studied without attachment to a naphthalimide compound or tissue attachment under physiological conditions. The work verified the expected hydrolysis rate and when combined with ex vivo data allows the influence of the tissue on the hydrolysis rate to be determined.
# A 20 mg/mL stock solution of a drug mimic, such as an FITC derivative, was prepared by weighing out approximately 20 mg of material and diluting with 1 mL of H20. The release rate of each compound, the free mimic from its respective linker, was studied in duplicate as a function of time and pH (phosphate buffered saline (PBS) at pH=1, pH=7.4, and pH=10). The starting concentration for each preparation was 400 μg/mL of drug mimic with attached linker (20 μL of stock solution diluted with 980 μL of hydrolysis PBS). In order to more accurately mimic clinical conditions samples were prepared and stored in a 37° C. oven with slow agitation using a rotating mixer until analyzed using HPLC. The concentration of the target complex was determined in duplicates at multiple time points (t=0, 8, 24, 48, 72, 144, 216 hours) using the HPLC conditions below and quantitation using a standard curve. A 2 mg/mL stock solution of the target complex was prepared by weighing out approximately 20 mg of target complex and diluting with 10 mL of H2O. The following concentrations from the stock solution were prepared by performing serial dilutions in H2O:
# Quantitation using a standard curve was used to determine the amount of drug mimic released (μg) at each time point and duplicate sample preparations at each time point were averaged. […] The detection limit of the method was 1 μg/mL. The standard curve for 3-phenylpropanol was also linear over the range of 1 μg/mL to 100 μg/mL with a detection limit of the method at 1 μg/mL.
# Using the HPLC release data calculated for the free Bn and 3PP, shown below, kinetic curves were plotted (concentration vs time) for each compound using PSI Plot. The concentration was fit to a first order kinetic equation, where CT=CF−Cce^−kt (CT is the concentration at each time point (μg), CF is the final concentration (μg), Cc is the change in concentration (μg), and k is the rate constant (hr^−1). If the reaction rate didn't display first order kinetics (ie: there was a systematic deviation between the experimental points and the calculated rate constant) other kinetic models were examined. Typically data was collected until at least 90% of the expected product was released. A sample kinetic curve is shown in FIG. 15B.
# The HPLC method was able to determine the identity of each compound and the component linker and drug mimic by the retention time as shown in the Table below. • Analytical Column: Alltima HP Rocket C18 3μ 53 mm×7 mm • Mobile Phase: A: 0.1% Trifluoroacetic acid(aq) (TFA), • B: 9:1 Acetonitrile:Water (0.1% TFA) • Gradient: 95% A hold for 1 minute, then ramp to 65% B at 7 minutes, hold for 0.5 minutes • (Equilibration time 5 minutes) • Detector: PDA detector at 440 nm Fluorescence detector excitation wavelength at nm emission wavelength at nm • Injection Volume: 20 μL • Flow Rate: 2.5 mL/min
# Using the concentration versus time data, a rate constant was calculated for each compound at various pHs. […] The enhanced rate for the hydrolysis of the Gly/Bn is likely due to the formation of an internal 5 membered ring that would be autocatalytic.
# artery = experiment: Arterial compression by other photoactivated material; settings: FIG. 13
# Procedure: Singlet oxygen generating species, such as Rose Bengal, riboflavin, and methylene blue were tested to determine if they would be effective at arterial compression.
SMILES,"hydrolysis rate constant k ([2]; pH 1, PBS) [h⁻¹]","hydrolysis rate constant k ([2]; pH 7.4, PBS) [h⁻¹]","hydrolysis rate constant k ([2]; pH 10, PBS) [h⁻¹]",efficacy at arterial compression (artery),other results
"Nc1ccc2c3c(cccc13)C(=O)NC2=O [4-amino-1,8-naphthalimide]",–,–,–,–,"flexibility of artery after treatment ([1]; after soak, balloon and light activation): more flexible and softer; Hypo-Echogenic pixels/Hyper-Echogenic pixels ([1]; entire IVUS pullback data, POST (soak plus balloon and 447 nm 1800 mW 60 seconds)): 5.011; Hypo-Echogenic pixels/Hyper-Echogenic pixels ([1]; entire IVUS pullback data, SOAK (2.5 mM, 5 minutes)): 4.699; Hypo-Echogenic pixels/Hyper-Echogenic pixels ([1]; frame 921, POST): 12.556; Hypo-Echogenic pixels/Hyper-Echogenic pixels ([1]; frame 921, SOAK): 7.500; Hypo-Echogenic pixels/Hyper-Echogenic pixels ([1]; frame 2925, POST): 21.050; Hypo-Echogenic pixels/Hyper-Echogenic pixels ([1]; frame 2925, SOAK): 9.043"
"NCCCC(=O)OCCCc1ccccc1 [GABA/3PP, 3-Phenylpropyl GABA]",0.034,0.010,0.124,–,–
"NCCCC(=O)OCc1ccccc1 [GABA/Bn, Benzyl GABA]",0.026,0.011,0.226,–,–
"NCC(=O)OCCCc1ccccc1 [Gly/3PP, 3-Phenylpropyl Glycinate]",0.004,0.082,0.155,–,–
"NCC(=O)OCc1ccccc1 [Gly/Bn, Benzyl Glycinate]",0.002,0.311,0.156,–,–
O=C([O-])c1c(Cl)c(Cl)c(Cl)c(Cl)c1-c1c2cc(I)c(=O)c(I)c-2oc2c(I)c([O-])c(I)cc12.[Na+].[Na+] [Rose Bengal],–,–,–,No efficacy was observed,–
CN(C)c1ccc2nc3ccc(=[N+](C)C)cc-3sc2c1 [methylene blue],–,–,–,No efficacy was observed,–
Cc1cc2nc3c(=O)[nH]c(=O)nc-3n(C[C@H](O)[C@H](O)[C@H](O)CO)c2cc1C [riboflavin],–,–,–,No efficacy was observed,–
